Test results taken from US20250312360A1, “MITOCHONDRIAL ANTIOXIDANT TREATMENT FOR CASK-LINKED NEURODEVELOPMENTAL DISORDERS” (Virginia Tech Intellectual Properties, Inc., priority 2022, published 2025).
Entries after “also recorded” stand apart in the source; their conditions may differ.

What was measured:
[1] = test system: CASK^floxed; Calb2-cre mice; test: Accelerating rotarod experiment (locomotor coordination/balance); assay type: in vivo; details: P70, n=3, p≤0.05, untreated mice cannot balance on rotarod, FIG. 5B
Source text: (§1) FIG. 5A-5B.-Blocking mitochondrial ROS protects cerebellum from degenerating in absence of CASK. […] Cerebellum undergoes atrophy after P30. […] (FIG. 5B) Cerebellum undergoes atrophy in CASK^floxed; Calb2-cre mice leading to locomotor incoordination. The data represents latency time to fall in an accelerating rotarod experiment on P70. CASK^floxed. […] Data represents mean and SEM from n=3. * indicates p≤ 0.05.

[2] = test system: CASK^floxed; Calb2-cre mice; test: Cerebellar atrophy/degeneration after CASK deletion in cerebellum, images of cerebellum with SkQ1 treatment; assay type: in vivo
Source text: as §1
With no evidence for a defect in neuronal development and biochemical evidence for mitochondrial ROS mediated neuronal death, Applicant next decided to determine if CASK loss results in the degeneration of formed neurons. In the human brain without CASK, Applicant observed astrogliosis as well as microgliosis, both hallmarks of neuronal damage and neuronal loss (Patel, Hegert et al., 2022). In the setting of a human brain without CASK, the presumptive neuronal loss occurs during the early development of the cerebellum, making it hard to further interpret the results. […]

For CC1=C(C)C(=O)C(CCCCCCCCCC[P+](c2ccccc2)(c2ccccc2)c2ccccc2)=CC1=O [SkQ1, 10-(6′-Plastoquinonyl)decyltriphenylphosphonium], the “latency time to fall in accelerating rotarod experiment (balance)” value [1] was “balance is completely rescued”, the “cerebellar atrophy (images of cerebellum)” value ([2]; CASK^floxed, untreated cerebellum atrophies after P30 (P30 vs P100 images), FIG. 5A right panel SkQ1-treated) was “rescue of cerebellar atrophy” and the “cerebellar degeneration / neurodegeneration caused by CASK deletion” value ([2]; CASKfloxed, summary statement on FIG. 5A-5B) was “can halt CASK-linked cerebellar degeneration; also recorded: effectively inhibits neurodegeneration resulting from CASK-loss”.
